doi:10.1101/2023.07.10.548257 (bioRxiv, 2024)

biological target: T1, full-length SHP2^R138Q (Homo sapiens, UniProt Q06124, R138Q); test: SHP2 activation assay using phosphopeptides (DiFMUP), SHP2 R138Q; assay type: biochemical; conditions: activation of full-length SHP2 R138Q (0.05 nM) by phosphopeptide; DiFMUP substrate; HEPES pH 7.2 assay buffer; mean of N (column N)
T1 construct: Full-length SHP2 constructs were diluted in assay buffer; His6-TEV (N, cleaved yes); made in house; host or cells: E. coli BL21(DE3)
T1 sequence (Q06124 1-593 R138Q): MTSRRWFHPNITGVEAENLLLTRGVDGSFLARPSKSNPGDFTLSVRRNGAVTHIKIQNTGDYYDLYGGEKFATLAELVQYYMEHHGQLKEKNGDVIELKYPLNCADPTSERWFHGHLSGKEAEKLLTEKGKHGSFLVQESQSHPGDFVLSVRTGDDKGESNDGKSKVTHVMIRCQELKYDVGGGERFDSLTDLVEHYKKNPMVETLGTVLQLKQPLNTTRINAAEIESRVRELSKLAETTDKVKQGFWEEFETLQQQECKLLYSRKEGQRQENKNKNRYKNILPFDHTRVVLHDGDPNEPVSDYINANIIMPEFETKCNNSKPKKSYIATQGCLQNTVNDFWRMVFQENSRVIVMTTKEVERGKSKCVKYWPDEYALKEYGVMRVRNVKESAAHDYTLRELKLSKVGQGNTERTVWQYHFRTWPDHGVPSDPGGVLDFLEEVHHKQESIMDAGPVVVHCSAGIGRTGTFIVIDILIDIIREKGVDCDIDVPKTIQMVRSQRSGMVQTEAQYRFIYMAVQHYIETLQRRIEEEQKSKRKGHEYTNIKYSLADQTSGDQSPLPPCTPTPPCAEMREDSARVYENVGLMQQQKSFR
Protocol: Emitted fluorescence at 455nm was recorded every 25 seconds in a span of 50 minutes using a BioTek Synergy Neo2 multi-mode reader. […]
In all cases, the linear region of the reaction progress curve was determined by visual inspection and fit to a line. These slopes were converted from absorbance or fluorescence units as a function of time to product formation as a function of time using standard curves measured with the reaction products (p-nitrophenol and 6,8-difluoro-7-hydroxy-4-methylcoumarin). […]
SHP2 activation assays using phosphopeptides
Full-length SHP2 constructs were diluted in assay buffer (60 mM HEPES pH 7.2, 75 mM KCl, 75 mM NaCl,1 mM EDTA, 0.05% Tween-20, with 0.5 mM TCEP freshly added) to a 2X concentration of 0.1 nM. Peptides were serially diluted in assay buffer, with the last point of the concentration series fully without peptide. 15 μL of peptide and 15 μL of 800 μM DiFMUP was added to a black 96-well half area plate. Right before starting the plate reader assay, 30 μL SHP2 was added to each well a Supplementary Information - page 4 of 18 […]
final concentration of 0.05nM. Kinetic measurements (Ex 358/Em […]) were taken on a BioTek Neo2 plate reader every 25 seconds for 6 minutes.
Cloning of the PD-1 ITIM scanning mutagenesis library […]
described previously for other peptide display libraries in the eCPX system (2, 4). A series of oligonucleotides spanning the peptide-coding sequence was synthesized with a different NNS codon in place of each wild-type codon (11 oligonucleotides in total). These degenerate primers were pooled then used to amplify a library of linear DNA encoding mutant ITIM fusions to the eCPX scaffold protein.
This library was then cloned into the pBAD33 vector used for surface display.
SH2 specificity profiling using bacterial peptide display
Preparation of bacterial cells
Electrocompetent MC1061 cells were transformed with ~100 ng of the respective library. After 1 hour recovery in 1 mL LB, cells were further diluted into 250 mL LB + 0.1% chloramphenicol. 1.8 mL of overnight culture was used to inoculate 100 mL LB + 0.1% chloramphenicol, and grown until OD600 reached 0.5. 20 mL of cell suspension was induced at 25 °C using a final concentration of 0.4% arabinose until the OD600 ~ 1 (after approximately 4 hours). The cells were spun down at 4000 rpm for 15 minutes, and the pellet was resuspended in PBS so that the OD600 ~1.5. The cells were stored in the fridge and used within a week.
For each sample, 75 μL of Dynabeads™ FlowComp™ Flexi Kit were washed twice in 1 mL SH2 buffer (50 mM HEPES pH 7.5, 150 mM NaCl, 1 mM TCEP, and 0.2% BSA) on a magnetic rack.
The beads were then resuspended in 75 μL of SH2 buffer. SH2 domains were thawed quickly and 20 μM of protein was added to the beads. SH2 buffer was added up to 150 μL, and the suspension was incubated for 1 hour at 4 °C while rotating. After 1 hour, the suspension was placed on a magnetic rack and washed twice with 1 mL SH2 buffer.
Preparing the phosphorylated cells
150 μL of prepared cells per sample were spun down for 4000 rpm for 5 minutes at 4 °C.
Kinase screen buffer was prepared (50 mM Tris, 10 mM magnesium chloride, 150 mM sodium chloride; add 2 mM sodium orthovanadate and 1 mM TCEP fresh) and the cells of each sample were resuspended in 100 μL kinase screen buffer. Kinases c-Src, c-Abl, AncSZ, Eph1B were added to a final concentration of 2.5 µM each, creatine phosphate was added to a final concentration of 5 mM, and phosphokinase was added to a final concentration of 50 µg/mL. The suspension was incubated at 37 °C for 5 minutes before ATP was added to a final concentration of 1 mM. This mixture was incubated at 37 °C for 3 hours. After 3 hours, EDTA was added to a final concentration of 25 mM to quench the reaction. The input library control sample was not phosphorylated. These cells were spun down at 4000 rpm for 15 minutes at 4 °C. The cells were then resuspended in 100 µL of SH2 buffer […]

Structure (SMILES) | EC50
CC[C@H](C)[C@H](NC(=O)[C@@H](NC(=O)[C@H](C)NC(=O)[C@H](Cc1ccc(OP(=O)(O)O)cc1)NC(=O)[C@@H](NC(=O)[C@@H]1CCCN1C(=O)[C@H](CCC(=O)O)NC(=O)[C@@H]1CCCN1C(=O)[C@H](CO)NC(=O)[C@@H](NC(C)=O)C(C)C)[C@@H](C)CC)[C@@H](C)O)C(=O)N[C@@H](CC(=O)O)C(=O)N[C@@H](CC(=O)O)C(=O)N[C@@H](CC(C)C)C(N)=O | 27.3 µM
CC(=O)N[C@@H](C)C(=O)N[C@@H](CCCCN)C(=O)N[C@@H](CO)C(=O)NCC(=O)N[C@@H](C)C(=O)N[C@H](C(=O)N[C@@H](Cc1ccc(OP(=O)(O)O)cc1)C(=O)N[C@@H](CO)C(=O)N[C@@H](CCC(=O)O)C(=O)N[C@@H](CC(C)C)C(=O)N[C@@H](CC(N)=O)C(=O)N[C@@H](Cc1ccccc1)C(=O)NCC(N)=O)C(C)C | 166 µM
CC[C@H](C)[C@H](NC(=O)[C@H](CC(=O)O)NC(=O)[C@H](C)NC(=O)[C@H](Cc1ccc(OP(=O)(O)O)cc1)NC(=O)[C@H](CCCCN)NC(=O)[C@@H](NC(=O)[C@H](CC(=O)O)NC(=O)CNC(=O)[C@H](CCCCN)NC(=O)[C@H](CCSC)NC(C)=O)C(C)C)C(=O)N[C@@H](CCC(=O)O)C(=O)N[C@@H](CO)C(=O)N[C@@H](CO)C(N)=O | 120 µM
CC[C@H](C)[C@H](NC(=O)[C@@H](NC(=O)[C@H](C)NC(=O)[C@H](Cc1ccc(OP(=O)(O)O)cc1)NC(=O)[C@H](CCC(=O)O)NC(=O)[C@@H](NC(=O)[C@H](CCC(N)=O)NC(=O)[C@H](CCC(=O)O)NC(=O)[C@@H]1CCCN1C(=O)[C@@H](NC(C)=O)C(C)C)[C@@H](C)O)[C@@H](C)O)C(=O)N[C@H](C(=O)N[C@@H](Cc1ccccc1)C(=O)N1CCC[C@H]1C(N)=O)C(C)C | 6.26 µM
CSCC[C@H](NC(=O)[C@H](CC(C)C)NC(=O)[C@H](CCC(N)=O)NC(=O)[C@H](C)NC(=O)[C@H](Cc1ccc(OP(=O)(O)O)cc1)NC(=O)[C@H](CC(N)=O)NC(=O)[C@H](CC(C)C)NC(=O)[C@H](C)NC(=O)[C@H](C)NC(=O)[C@H](CCCCN)NC(=O)[C@H](CCCCN)NC(C)=O)C(=O)N[C@@H](Cc1ccccc1)C(=O)N1CCC[C@H]1C(N)=O | 4.2 µM
CC[C@H](C)[C@H](NC(=O)[C@H](CC(N)=O)NC(=O)[C@@H](NC(=O)[C@H](Cc1ccc(OP(=O)(O)O)cc1)NC(=O)[C@H](CCC(=O)O)NC(=O)CNC(=O)[C@@H]1CCCN1C(=O)[C@H](CO)NC(=O)[C@H](CCCCN)NC(=O)[C@@H]1CCCN1C(C)=O)C(C)C)C(=O)N[C@@H](CCC(=O)O)C(=O)N[C@@H](Cc1ccccc1)C(=O)NCC(N)=O | 29.6 µM
CC(=O)N[C@@H](CO)C(=O)N[C@H](C(=O)NCC(=O)N[C@@H](CO)C(=O)N[C@H](C(=O)N[C@@H](CC(=O)O)C(=O)N[C@@H](Cc1ccc(OP(=O)(O)O)cc1)C(=O)N[C@@H](CC(C)C)C(=O)N[C@@H](C)C(=O)N[C@@H](CC(C)C)C(=O)N[C@@H](CC(=O)O)C(=O)N[C@@H](Cc1ccccc1)C(=O)N[C@@H](CCC(N)=O)C(N)=O)C(C)C)[C@@H](C)O | 5.98 µM
CC(=O)N1CCC[C@H]1C(=O)N[C@H](C(=O)N[C@@H](Cc1ccccc1)C(=O)N[C@@H](CO)C(=O)N[C@H](C(=O)N[C@@H](CC(=O)O)C(=O)N[C@@H](Cc1ccc(OP(=O)(O)O)cc1)C(=O)NCC(=O)N[C@@H](CCC(=O)O)C(=O)N[C@@H](CC(C)C)C(=O)N[C@@H](CC(=O)O)C(=O)N[C@@H](Cc1ccccc1)C(=O)N[C@@H](CCC(N)=O)C(N)=O)C(C)C)C(C)C | 6.55 µM
CC[C@H](C)[C@H](NC(=O)[C@H](Cc1ccc(OP(=O)(O)O)cc1)NC(=O)[C@H](CC(N)=O)NC(=O)[C@H](CC(C)C)NC(=O)CNC(=O)[C@H](CC(N)=O)NC(=O)[C@H](CCC(=O)O)NC(=O)[C@H](CC(C)C)NC(C)=O)C(=O)N[C@@H](CC(=O)O)C(=O)N[C@@H](CC(C)C)C(=O)N[C@@H](CC(=O)O)C(=O)N[C@@H](CC(C)C)C(=O)N[C@H](C(N)=O)C(C)C | 1.43 µM
